Laboratory results published in PubChem BioAssay AID180 (DTP/NCI, 2004).
Several values for one entry are separate records, joined by “and”; a condition that tells them apart may be missing. Equal entries are not always repeated.

System: BDF1 mice, Adenocarcinoma 755 s.c., tumor weight T/C
Test: NCI In Vivo Anticancer Drug Screen. Data for tumor model Adenocarcinoma 755 (subcutaneous) in B6D2F1 (BDF1) mice
Settings: endpoint: mean tumor weight, higher = larger tumour
Summary of the method: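 Values express treated (T) relative to vehicle-dosed control (C) animals, based on survival or tumour size measured after compound treatment of mice bearing a transplanted tumour.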

[1] = dose: 100.0 mg/kg/injection, schedule: Q01DX011 (ip), vehicle: carboxymethylcellulose (CMC)
[2] = dose: 25.0 mg/kg/injection, schedule: Q01DX011 (ip), vehicle: methylcellulose (MC)

Question: With `ClCCn1cnc2c(SCc3ccccc3Cl)ncnc21` as the molecule, how does the T/C (dose: 0.5 mg/kg/injection, schedule: Q01DX011 (ip), vehicle: other) read?
Answer: 91 % of control

Question: What about the T/C (dose: 0.5 mg/kg/injection, schedule: Q01DX011 (oral), vehicle: other) of the same molecule?
Answer: 74 % of control

Question: What about the T/C (dose: 1.0 mg/kg/injection, schedule: Q01DX011 (ip), vehicle: other) of the same molecule?
Answer: 84 % of control

Question: And the T/C (dose: 2.0 mg/kg/injection, schedule: Q01DX011 (ip), vehicle: other)?
Answer: 42 % of control and 47 % of control

Question: What about the T/C (dose: 2.0 mg/kg/injection, schedule: Q01DX011 (oral), vehicle: other) of the same molecule?
Answer: 109 % of control

Question: And the T/C (dose: 4.0 mg/kg/injection, schedule: Q01DX011 (oral), vehicle: other)?
Answer: 75 % of control and 81 % of control

Question: What about the T/C (dose: 8.0 mg/kg/injection, schedule: Q01DX011 (ip), vehicle: other) of the same molecule?
Answer: 3 % of control

Question: And the T/C (dose: 8.0 mg/kg/injection, schedule: Q01DX011 (oral), vehicle: other)?
Answer: 25 % of control and 32 % of control

Question: And the T/C (dose: 15.0 mg/kg/injection, schedule: Q01DX011 (oral), vehicle: other)?
Answer: 5 % of control and 13 % of control

Question: And the T/C (dose: 30.0 mg/kg/injection, schedule: Q01DX011 (oral), vehicle: other)?
Answer: 1 % of control

Question: What about the T/C [1] of the same molecule?
Answer: 3 % of control

Question: `O=C1C=Cc2ccc(O)cc2C1=O` was tested. Which T/C (dose: 2.0 mg/kg/injection, schedule: Q01DX011 (ip), vehicle: saline) did it give?
Answer: 103 % of control

Question: What about the T/C (dose: 8.0 mg/kg/injection, schedule: Q01DX011 (ip), vehicle: saline) of the same molecule?
Answer: 50 % of control

Question: With `CC(=O)[C@@]1(O)CC[C@H]2[C@@H]3C[C@H](C)C4=CC(=O)CC[C@]4(C)[C@H]3[C@@H](O)C[C@@]21C` as the molecule, how does the T/C (dose: 7.0 mg/kg/injection, schedule: Q01DX011 (sc), vehicle: steriod suspending solution) read?
Answer: 70 % of control

Question: What about the T/C (dose: 8.0 mg/kg/injection, schedule: Q01DX011 (sc), vehicle: steriod suspending solution) of the same molecule?
Answer: 76 % of control

Question: And the T/C (dose: 14.0 mg/kg/injection, schedule: Q01DX011 (sc), vehicle: steriod suspending solution)?
Answer: 54 % of control

Question: And the T/C (dose: 16.0 mg/kg/injection, schedule: Q01DX011 (sc), vehicle: steriod suspending solution)?
Answer: 76 % of control

Question: What about the T/C (dose: 450.0 mg/kg/injection, schedule: Q01DX011 (sc), vehicle: steriod suspending solution) of the same molecule?
Answer: 87 % of control

Question: With `CCCCn1cnc2c(SCc3ccc(F)cc3)nc(N)nc21` as the molecule, how does the T/C (dose: 3.1 mg/kg/injection, schedule: Q01DX011 (ip), vehicle: methylcellulose (MC)) read?
Answer: 59 % of control

Question: And the T/C (dose: 6.25 mg/kg/injection, schedule: Q01DX011 (ip), vehicle: methylcellulose (MC))?
Answer: 47 % of control

Question: And the T/C (dose: 12.5 mg/kg/injection, schedule: Q01DX011 (ip), vehicle: methylcellulose (MC))?
Answer: 22 % of control

Question: What about the T/C [2] of the same molecule?
Answer: 10 % of control and 14 % of control

Question: And the T/C (dose: 50.0 mg/kg/injection, schedule: Q01DX011 (ip), vehicle: methylcellulose (MC))?
Answer: 2 % of control

Question: How did the T/C (dose: 25.0 mg/kg/injection, schedule: Q01DX011 (sc), vehicle: water) turn out when `C[C@]12CCC(=O)C=C1CC[C@@H]1[C@@H]2[C@@H](O)C[C@@]2(C)[C@H]1CC[C@]2(O)C(=O)COC(=O)c1ccc([N+](=O)[O-])cc1Cl` was run?
Answer: 43 % of control

Question: And the T/C (dose: 50.0 mg/kg/injection, schedule: Q01DX011 (sc), vehicle: water)?
Answer: 17 % of control

Question: What about the T/C (dose: 100.0 mg/kg/injection, schedule: Q01DX011 (sc), vehicle: water) of the same molecule?
Answer: 23 % of control

Question: What about the T/C (dose: 200.0 mg/kg/injection, schedule: Q01DX011 (sc), vehicle: water) of the same molecule?
Answer: 4 % of control

Question: How did the T/C [2] turn out when `OCCn1cnc2c(=S)nc[nH]c21` was run?
Answer: 38 % of control

Question: What about the T/C (dose: 75.0 mg/kg/injection, schedule: Q01DX011 (ip), vehicle: methylcellulose (MC)) of the same molecule?
Answer: 74 % of control

Question: And the T/C (dose: 225.0 mg/kg/injection, schedule: Q01DX011 (ip), vehicle: methylcellulose (MC))?
Answer: 34 % of control

Question: Which results are given for `CCc1c(CC(=O)O)c2cc(C)ccc2n1Cc1ccc(Cl)cc1`?
Answer: T/C (dose: 20.0 mg/kg/injection, schedule: Q01DX011 (ip), vehicle: carboxymethylcellulose (CMC)): 87 % of control; T/C (dose: 40.0 mg/kg/injection, schedule: Q01DX011 (ip), vehicle: carboxymethylcellulose (CMC)): 119 % of control; T/C (dose: 80.0 mg/kg/injection, schedule: Q01DX011 (ip), vehicle: carboxymethylcellulose (CMC)): 97 % of control; T/C [1]: 37 % of control

Question: Which T/C (dose: 0.25 mg/kg/injection, schedule: Q01DX011 (ip), vehicle: methylcellulose (MC)) does the source give for `O=CNC(Cc1cccc(N(CCCl)CCCl)c1)C(=O)O` (stereo unspecified) here?
Answer: 96 % of control

Question: And the T/C (dose: 0.5 mg/kg/injection, schedule: Q01DX011 (ip), vehicle: methylcellulose (MC))?
Answer: 59 % of control

Question: And the T/C (dose: 1.0 mg/kg/injection, schedule: Q01DX011 (ip), vehicle: methylcellulose (MC))?
Answer: 57 % of control

Question: What about the T/C (dose: 1.1 mg/kg/injection, schedule: Q01DX011 (ip), vehicle: methylcellulose (MC)) of the same molecule?
Answer: 36 % of control

Question: What about the T/C (dose: 2.0 mg/kg/injection, schedule: Q01DX011 (ip), vehicle: methylcellulose (MC)) of the same molecule?
Answer: 41 % of control

Question: What about the T/C (dose: 2.25 mg/kg/injection, schedule: Q01DX011 (ip), vehicle: methylcellulose (MC)) of the same molecule?
Answer: 22 % of control

Question: And the T/C (dose: 4.5 mg/kg/injection, schedule: Q01DX011 (ip), vehicle: methylcellulose (MC))?
Answer: 4 % of control

Question: With `CC(=O)O[C@]1(C(C)=O)CC[C@H]2[C@@H]3C[C@H](C)C4=CC(=O)C=C[C@]4(C)[C@@]3(F)[C@@H](O)C[C@@]21C` as the molecule, how does the T/C (dose: 4.5 mg/kg/injection, schedule: Q01DX011 (sc), vehicle: steriod suspending solution) read?
Answer: 95 % of control

Question: And the T/C (dose: 9.0 mg/kg/injection, schedule: Q01DX011 (sc), vehicle: steriod suspending solution)?
Answer: 60 % of control

Question: What about the T/C (dose: 15.0 mg/kg/injection, schedule: Q01DX011 (sc), vehicle: steriod suspending solution) of the same molecule?
Answer: 54 % of control

Question: What about the T/C (dose: 18.0 mg/kg/injection, schedule: Q01DX011 (sc), vehicle: steriod suspending solution) of the same molecule?
Answer: 34 % of control

Question: And the T/C (dose: 30.0 mg/kg/injection, schedule: Q01DX011 (sc), vehicle: steriod suspending solution)?
Answer: 34 % of control

Question: And the T/C (dose: 60.0 mg/kg/injection, schedule: Q01DX011 (sc), vehicle: steriod suspending solution)?
Answer: 19 % of control

Question: What about the T/C (dose: 120.0 mg/kg/injection, schedule: Q01DX011 (sc), vehicle: steriod suspending solution) of the same molecule?
Answer: 8 % of control

Question: And the T/C (dose: 136.0 mg/kg/injection, schedule: Q01DX011 (sc), vehicle: steriod suspending solution)?
Answer: 17 % of control

Question: How did the T/C (dose: 43.75 mg/kg/injection, schedule: Q01DX011 (ip), vehicle: methylcellulose (MC)) turn out when `O=c1[nH]cnc2c1ncn2CCO` was run?
Answer: 40 % of control

Question: And the T/C (dose: 87.5 mg/kg/injection, schedule: Q01DX011 (ip), vehicle: methylcellulose (MC))?
Answer: 100 % of control

Question: What about the T/C (dose: 175.0 mg/kg/injection, schedule: Q01DX011 (ip), vehicle: methylcellulose (MC)) of the same molecule?
Answer: 123 % of control

Question: And the T/C (dose: 350.0 mg/kg/injection, schedule: Q01DX011 (ip), vehicle: methylcellulose (MC))?
Answer: 99 % of control

Question: What does the source list for `CCCN1CCC(=O)NC1=S`?
Answer: T/C (dose: 15.0 mg/kg/injection, schedule: Q01DX011 (ip), vehicle: methylcellulose (MC)): 81 % of control; T/C (dose: 31.0 mg/kg/injection, schedule: Q01DX011 (ip), vehicle: methylcellulose (MC)): 64 % of control; T/C (dose: 62.0 mg/kg/injection, schedule: Q01DX011 (ip), vehicle: methylcellulose (MC)): 74 % of control; T/C (dose: 125.0 mg/kg/injection, schedule: Q01DX011 (ip), vehicle: methylcellulose (MC)): 93 % of control

Question: How did the T/C (dose: 0.38 mg/kg/injection, schedule: Q01DX011 (ip), vehicle: saline) turn out when `O=C(NP(=O)(N1CC1)N1CC1)OCc1ccccc1` was run?
Answer: 68 % of control

Question: And the T/C (dose: 0.75 mg/kg/injection, schedule: Q01DX011 (ip), vehicle: saline)?
Answer: 35 % of control

Question: What about the T/C (dose: 1.5 mg/kg/injection, schedule: Q01DX011 (ip), vehicle: saline) of the same molecule?
Answer: 53 % of control

Question: And the T/C (dose: 2.25 mg/kg/injection, schedule: Q01DX011 (ip), vehicle: other)?
Answer: 74 % of control

Question: And the T/C (dose: 2.25 mg/kg/injection, schedule: Q01DX011 (ip), vehicle: saline)?
Answer: 115 % of control

Question: And the T/C (dose: 3.0 mg/kg/injection, schedule: Q01DX011 (ip), vehicle: saline)?
Answer: 18 % of control and 35 % of control

Question: What about the T/C (dose: 4.5 mg/kg/injection, schedule: Q01DX011 (ip), vehicle: other) of the same molecule?
Answer: 83 % of control

Question: And the T/C (dose: 4.5 mg/kg/injection, schedule: Q01DX011 (ip), vehicle: saline)?
Answer: 98 % of control

Question: And the T/C (dose: 6.0 mg/kg/injection, schedule: Q01DX011 (ip), vehicle: saline)?
Answer: 18 % of control

Question: And the T/C (dose: 9.0 mg/kg/injection, schedule: Q01DX011 (ip), vehicle: other)?
Answer: 52 % of control

Question: What about the T/C (dose: 9.0 mg/kg/injection, schedule: Q01DX011 (ip), vehicle: saline) of the same molecule?
Answer: 56 % of control

Question: What about the T/C (dose: 12.0 mg/kg/injection, schedule: Q01DX011 (ip), vehicle: saline) of the same molecule?
Answer: 2 % of control

Question: And the T/C (dose: 18.0 mg/kg/injection, schedule: Q01DX011 (ip), vehicle: other)?
Answer: 12 % of control

Question: And the T/C (dose: 18.0 mg/kg/injection, schedule: Q01DX011 (ip), vehicle: saline)?
Answer: 29 % of control

Question: What about the T/C (dose: 24.0 mg/kg/injection, schedule: Q01DX011 (ip), vehicle: saline) of the same molecule?
Answer: 1 % of control

Question: `Clc1cccc(CSc2ncnc3c2ncn3C2CCCCO2)c1` (stereo unspecified) was tested. Which T/C (dose: 30.0 mg/kg/injection, schedule: Q01DX011 (ip), vehicle: methylcellulose (MC)) did it give?
Answer: 18 % of control

Question: And the T/C (dose: 100.0 mg/kg/injection, schedule: Q01DX011 (ip), vehicle: methylcellulose (MC))?
Answer: 6 % of control

Question: How did the T/C (dose: 125.0 mg/kg/injection, schedule: Q01DX011 (ip), vehicle: carboxymethylcellulose (CMC)) turn out when `CCOC(=O)CCCc1ccc(N=NN(C)CC(C)C)cc1` was run?
Answer: 47 % of control

Question: And the T/C (dose: 250.0 mg/kg/injection, schedule: Q01DX011 (ip), vehicle: carboxymethylcellulose (CMC))?
Answer: 28 % of control
